Laboratory results as given in patent US10882837B2, “Amide compounds and use thereof” (ALPHALA CO., LTD., priority 2017, dated 2021).

Assays:
GCGR = GCGR (Homo sapiens, UniProt P47871); assay: I125-glucagon binding assay (competition, GCGR membrane fractions); design: expressed in transfected cells; host or cells: CHO-K1; settings: for IC50: competition with I125-glucagon 0.0625 nM, membrane fractions from GCGR overexpressed CHO-K1 cells
Procedure: I^125-Glucagon Binding Assay
The binding affinity of each compound was evaluated by a competition assay with I^125-glucagon. GCGR membrane fractions were obtained from GCGR overexpressed CHO-K1 cells as a stock of 1 mg/ml concentration. To evaluate the IC50 of compounds binding to GCGR, GCGR membrane fractions were treated with compounds with a serial dilution. The membrane fractions were diluted to 7.5 microgram per well in 70 microliter assay buffer contained 50 mM Tris pH 7.4 and 0.5% (w/v) bovine serum albumin and added into 96 wells plate. The membrane fractions were then mixed with 10 microliter diluted compounds. After 5 minutes pre-incubation, 20 microliter I^125 labeled glucagon (Perkin Elmer) was added into each well at the final concentration of 0.0625 nM. The assay mixtures were incubated at 25° C. for 30 minutes and then transferred onto the Millipore Multiscreen GF/B Plate coated with 0.5% (w/v) Polyethyleneimine. The filter plate was washed with wash buffer contained 50 mM Tris pH 7.4 for 2 times, 300 microliter each time. The residual isotope was detected by Hidex CHAMELEON V micro-beta counter and the IC50 value of each compound binding to GCGR was calculated with non-linear regression.

glucagon receptor (GCGR) = biological target: T1, glucagon receptor (GCGR) (Homo sapiens, UniProt P47871); assay: Glucagon cAMP inhibition assay (Cisbio cAMP Dynamic 2 HTRF); format: cell-based; settings: GCGR overexpressed CHO-K1 cells or human primary hepatocytes (not specified); glucagon at EC50
T1 construct: expressed in transfected cells; host or cells: CHO-K1
Procedure: Glucagon eAMP Inhibition Assay
Downstream secondary messenger eAMP induced by glucagon was detected by Cisbio cAMP Dynamic 2 kit. Testing compounds were each prepared as a dimethyl sulfoxide (DMSO) solution at the concentration of 10 mM. To evaluate the potency of compounds in inhibiting the cAMP production, glucagon receptor (GCGR) overexpressed CHO-K1 cells or human primary hepatocytes were treated with compounds with a serial dilution. The cells were re-suspended in Hank's Balanced Salt solution (HBSS) contained 0.1% (w/v) bovine serum albumin and 800 nM 3-isobutyl-1-methylxanthine (IBMX) and seeded into low volume, 384 wells white plate. The diluted compounds were then added into the plate for 30 minutes pre-incubation where the final DMSO concentration was 1%. The cells were stimulated with glucagon at the concentration equaled to EC50 (an indicium of the concentration of a drag that gives half-maximal response) for 30 minutes at room temperature. After incubation, lysis buffer contain cAMP antibody and fluorescence acceptor were added into each well for additional 60 minutes incubation. Results were recorded by Molecular Devices SpectraMax Paradigm with the HTRF Detection Cartridges and the IC50 value of each compound in inhibiting the cAMP production was calculated with non-linear regression based on the amount of cAMP production.

Sequence of GCGR (P47871 26-477, species assumed): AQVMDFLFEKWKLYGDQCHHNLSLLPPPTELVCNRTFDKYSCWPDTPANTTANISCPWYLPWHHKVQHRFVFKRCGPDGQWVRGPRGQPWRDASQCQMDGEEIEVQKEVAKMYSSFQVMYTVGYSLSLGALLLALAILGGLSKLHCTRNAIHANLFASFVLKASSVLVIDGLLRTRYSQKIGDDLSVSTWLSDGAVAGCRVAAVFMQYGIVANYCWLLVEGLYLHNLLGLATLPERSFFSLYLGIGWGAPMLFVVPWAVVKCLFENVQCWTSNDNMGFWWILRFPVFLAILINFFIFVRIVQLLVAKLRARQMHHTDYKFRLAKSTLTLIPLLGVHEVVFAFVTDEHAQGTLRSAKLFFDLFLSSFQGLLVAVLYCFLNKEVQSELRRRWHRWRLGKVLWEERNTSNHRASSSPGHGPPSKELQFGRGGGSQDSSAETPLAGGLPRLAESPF
T1 sequence (P47871 26-477, species assumed): as above

Row | IC50 (GCGR) | IC50 (glucagon receptor (GCGR)) | inhibition at 30 µM (GCGR; compound at 30 μM, read-out: percentage of inhibition (number in parenthesis in IC50 binding column)) | SMILES
1 | > 30 µM | 0.118 µM | – | CCOC(=O)CCNC(=O)c1ccc(NC(CC(C)C)c2ccc(-c3nnc(-c4ccc(F)cc4)o3)cc2)cc1 (centres unmarked) [Compound 1-27, ethyl 3-(4-((1-(4-(5-(4-fluorophenyl)-1,3,4-oxadiazol-2-yl)phenyl)-3-methylbutyl)amino)benzamido)propanoate]
2 | 0.074 µM | 1.03 µM | – | CCC(C)C(Nc1ccc(-c2nnc(-c3ccc(F)cc3)o2)cc1)c1ccc(C(=O)NCCC(=O)O)cc1 (centres unmarked) [Compound 3-8, 3-(4-(1-((4-(5-(4-fluorophenyl)-1,3,4-oxadiazol-2-yl)phenyl)amino)-2-methylbutyl)benzamido)propanoic acid]
3 | 0.347 µM | 3.41 µM | – | CCC(C)C(Nc1ccc(C(=O)NCCC(=O)O)cc1)c1ccc(-c2nnc(-c3ccc(F)cc3)o2)cc1 (centres unmarked) [Compound 1-30, 3-(4-((1-(4-(5-(4-fluorophenyl)-1,3,4-oxadiazol-2-yl)phenyl)-2-methylbutyl)amino)benzamido)propanoic acid]
4 | 0.0423 µM | 1.02 µM | – | CC(C)[C@H](Nc1ccc(C(=O)NCCC(=O)O)cc1)c1ccc(-c2nc3ccccc3s2)cc1 [Compound 4-26, (S)-3-(4-((1-(4-(benzo[d]thiazol-2-yl)phenyl)-2-methylpropyl)amino)benzamido)propanoic acid]
5 | 0.15 µM | 1.5 µM | – | CCCC[C@@H](Nc1ccc(C(=O)NCCC(=O)O)cc1)c1ccc(-c2nc3ccccc3o2)cc1 [Compound 4-10]
6 | 0.166 µM | 0.55 µM | – | CCC(C)[C@H](Nc1ccc(C(=O)NCCC(=O)O)cc1)c1ccc(-c2noc(C(F)(F)F)n2)cc1 (stereo partly drawn) [Compound 2-30, 3-(4-(((1S)-2-methyl-1-(4-(5-(trifluoromethyl)-1,2,4-oxadiazol-3-yl)phenyl)butyl)amino)benzamido)propanoic acid]
7 | 16.1 µM | 0.042 µM | – | CCOC(=O)CCNC(=O)c1ccc(N[C@H](c2ccc(-c3nnc(C(F)(F)F)o3)cc2)C(C)CC)cc1 (stereo partly drawn) [Compound 1-34, ethyl 3-(4-(((1S)-2-methyl-1-(4-(5-(trifluoromethyl)-1,3,4-oxadiazol-2-yl)phenyl)butyl)amino)benzamido)propanoate]
8 | 0.0131 µM | 0.239 µM | – | CCC(C)[C@H](Nc1ccc(C(=O)NCCC(=O)O)cc1)c1ccc(-c2nc(-c3ccccc3)no2)cc1 (stereo partly drawn) [Compound 5-6, 3-(4-(((1S)-2-methyl-1-(4-(3-phenyl-1,2,4-oxadiazol-5-yl)phenyl)butyl)amino)benzamido)propanoic acid]
9 | 0.562 µM | 15.2 µM | – | CCCCC(Nc1ccc(C(=O)NCCC(=O)O)cc1)c1ccc(-c2nnc(C(C)(C)C)o2)cc1 (centres unmarked) [Compound 1-20, 3-(4-((1-(4-(5-(tert-butyl)-1,3,4-oxadiazol-2-yl)phenyl)pentyl)amino)benzamido)propanoic acid]
10 | > 30 µM | 0.384 µM | – | CCOC(=O)CCNC(=O)c1ccc(N[C@@H](c2ccc(-c3nnc(C(F)(F)F)o3)cc2)C(C)CC)cc1 (stereo partly drawn) [Compound 1-35, ethyl 3-(4-(((1R)-2-methyl-1-(4-(5-(trifluoromethyl)-1,3,4-oxadiazol-2-yl)phenyl)butyl)amino)benzamido)propanoate]
11 | 0.0341 µM | 0.292 µM | – | CC(C)[C@H](Nc1ccc(C(=O)NCCC(=O)O)cc1)c1ccc(-c2nc(-c3ccccc3)no2)cc1 [Compound 5-4, (S)-3-(4-((2-methyl-1-(4-(3-phenyl-1,2,4-oxadiazol-5-yl)phenyl)propyl)amino)benzamido)propanoic acid]
12 | 0.226 µM | 8.63 µM | – | CC(C)CC(Nc1ccc(C(=O)NCCC(=O)O)cc1)c1ccc(-c2noc(C(C)(C)C)n2)cc1 (centres unmarked) [Compound 2-6, 3-(4-((1-(4-(5-(tert-butyl)-1,2,4-oxadiazol-3-yl)phenyl)-3-methylbutyl)amino)benzamido)propanoic acid]
13 | 0.372 µM | 1.08 µM | – | CC(C)[C@@H](Nc1ccc(C(=O)NCCC(=O)O)cc1)c1ccc(-c2nc3ccccc3o2)cc1 [Compound 4-8, (R)-3-(4-((1-(4-(benzo[d]oxazol-2-yl)phenyl)-2-methylpropyl)amino)benzamido)propanoic acid]
14 | > 3 µM | 0.124 µM | – | CCOC(=O)CCNC(=O)c1ccc(N[C@@H](c2ccc(-c3nc4ccccc4o3)cc2)C(C)C)cc1 [Compound 4-6, ethyl (R)-3-(4-((1-(4-(benzo[d]oxazol-2-yl)phenyl)-2-methylpropyl)amino)benzamido)propanoate]
15 | 0.318 µM | 0.717 µM | – | CC(C)C(Nc1ccc(-c2noc(-c3ccccc3)n2)cc1)c1ccc(C(=O)NCCC(=O)O)cc1 (centres unmarked) [Compound 3-11, 3-(4-(2-methyl-1-((4-(5-phenyl-1,2,4-oxadiazol-3-yl)phenyl)amino)propyl)benzamido)propanoic acid]
16 | 0.354 µM | 0.504 µM | – | CC(C)C(Nc1ccc(C(=O)NCCC(=O)O)cc1)c1ccc(-c2noc(-c3cccs3)n2)cc1 (centres unmarked) [Compound 2-12, 3-(4-((2-methyl-1-(4-(5-(thiophen-2-yl)-1,2,4-oxadiazol-3-yl)phenyl)propyl)amino)benzamido)propanoic acid]
17 | 0.036 µM | 0.785 µM | – | CCCC[C@H](Nc1ccc(C(=O)NCCC(=O)O)cc1)c1ccc(-c2nc3ccccc3o2)cc1 [Compound 4-16, (S)-3-(4-((1-(4-(benzo[d]oxazol-2-yl)phenyl)pentyl)amino)benzamido)propanoic acid]
18 | 2.5 µM | > 30 µM | – | CC(C)[C@H](Nc1ccc(C(=O)NCCC(=O)O)cc1)c1ccc(-c2nnc(C(F)(F)F)o2)cc1 (racemic) [Compound 1-57, (RS)-3-(4-((2-methyl-1-(4-(5-(trifluoromethyl)-1,3,4-oxadiazol-2-yl)phenyl)propyl)amino)benzamido)propanoic acid]
19 | 0.389 µM | 0.0711 µM | – | CCOC(=O)CCNC(=O)c1ccc(N[C@@H](CC(C)C)c2ccc(-c3noc(-c4ccccc4)n3)cc2)cc1 [Compound 2-41, ethyl (S)-3-(4-((3-methyl-1-(4-(5-phenyl-1,2,4-oxadiazol-3-yl)phenyl)butyl)amino)benzamido)propanoate]
20 | 0.058 µM | 1.19 µM | – | CC(C)C(Nc1ccc(C(=O)NCCC(=O)O)cc1)c1ccc(-c2noc(-c3ccc(F)cc3)n2)cc1 (centres unmarked) [Compound 2-25, 3-(4-((1-(4-(5-(4-fluorophenyl)-1,2,4-oxadiazol-3-yl)phenyl)-2-methylpropyl)amino)benzamido)propanoic acid]
21 | 2.92 µM | 2.93 µM | – | CC(C)[C@@H](Nc1ccc(C(=O)NCCC(=O)O)cc1)c1ccc(-c2nnc(-c3ccccc3)o2)cc1 [Compound 1-42, (R)-3-(4-(2-methyl-1-(4-(5-phenyl-1,3,4-oxadiazol-2-yl)phenyl)propylamino)benzamido)propanoic acid]
22 | 0.101 µM | > 30 µM | – | CC(C)[C@H](Nc1ccc(C(=O)NCCS(=O)(=O)O)cc1)c1ccc(-c2nnc(-c3ccccc3)o2)cc1 [Compound 1-64, (S)-2-(4-((2-methyl-1-(4-(5-phenyl-1,3,4-oxadiazol-2-yl)phenyl)propyl)amino)benzamido)ethane-1-sulfonic acid]
23 | 1.87 µM | 0.025 µM | 34% | CCOC(=O)CCNC(=O)c1ccc(NC(c2ccc(-c3nnc(-c4ccccc4)o3)cc2)C(C)CC)cc1 (centres unmarked) [Compound 1-10, Ethyl 3-(4-((2-methyl-1-(4-(5-phenyl-1,3,4-oxadiazol-2-yl)phenyl)butyl)amino)benzamido)propanoate]
24 | 0.968 µM | 0.0957 µM | – | CCOC(=O)CCNC(=O)c1ccc(NC(c2ccc(-c3nc4ccccc4o3)cc2)C(C)C)cc1 (centres unmarked) [Compound 4-1, ethyl 3-(4-((1-(4-(benzo[d]oxazol-2-yl)phenyl)-2-methylpropyl)amino)benzamido)propanoate]
25 | 0.923 µM | 0.242 µM | – | CCOC(=O)CCNC(=O)c1ccc(N[C@@H](c2ccc(-c3nc4ccccc4o3)cc2)C(C)CC)cc1 (stereo partly drawn) [Compound 4-21, ethyl 3-(4-(((1R)-1-(4-(benzo[d]oxazol-2-yl)phenyl)-2-methylbutyl)amino)benzamido)propanoate]
26 | 0.02 µM | 0.211 µM | – | CC(C)C[C@H](Nc1ccc(C(=O)NCCC(=O)O)cc1)c1ccc(-c2nc(-c3ccccc3)no2)cc1 [Compound 5-2, (S)-3-(4-((3-methyl-1-(4-(3-phenyl-1,2,4-oxadiazol-5-yl)phenyl)butyl)amino)benzamido)propanoic acid]
